# Measurements published in the COVID Moonshot data (paper PMC7615835).
# Where “and” joins values, the source holds several entries; their conditions need not be identical. Equal values may be shown once.
# Target: SARS-CoV-2 Main Protease (SARS-CoV-2) (UniProt P0DTD1)
row,SMILES,IC50
1,Nc1nn(C(=O)Cc2cccc(Cl)c2)c2cc(F)ccc12,> 99.5 µM
2,O=C(Nc1nncn1C1CC1)C1CCOc2ccc(Cl)cc21 (centres undefined),0.513 µM and 0.696 µM
3,CS(=O)(=O)CCN1CC(C(=O)Nc2cncc3ccccc23)c2cc(Cl)ccc2C1=O (centres undefined),0.177 µM
4,O=C(Cn1ccc(=O)[nH]c1=O)OCc1ccc(-c2ccccc2)cc1,> 99.5 µM
5,O=C(c1ccc2nc(C(F)F)[nH]c2c1)N1CCC(C2CCNC2)CC1 (centres undefined),> 99.5 µM
6,Cn1nc2c(c1C(=O)N(c1ccc(C(C)(C)C)cc1)C(C(=O)NCCc1cccc(F)c1)c1cccnc1)CS(=O)(=O)CC2 (centres undefined),> 99.5 µM
7,C[C@@H]1CC[C@@]2(OC1)O[C@H]1C[C@H]3[C@@H]4CC=C5C[C@@H](O)CC[C@]5(C)[C@H]4CC[C@]3(C)[C@]1(O)[C@@H]2C (stereo in doubt),> 99.5 µM
8,CNC(=O)CN1CC(C(=O)Nc2cncc3ccc(C(C)(C)O)cc23)c2cc(Cl)ccc2C1=O (centres undefined),0.384 µM
9,Cn1cc(C(=O)N(c2ccc(C(C)(C)C)cc2)C(C(=O)NCCc2cccc(F)c2)c2cccnc2)ncc1=O (centres undefined),> 99.5 µM
10,CCCOc1ccc(Nc2cc(Cl)cc(CC(=O)Nc3cncc4ccccc34)c2)cc1,2.92 µM
11,CCc1ccc2c(c1)C(=O)C(=O)N2CC(=O)O,> 99.5 µM
12,CC(C)S(=O)(=O)c1ccc(N(C(=O)c2cnc[nH]2)C(C(=O)NCCc2cccc(F)c2)c2cccnc2)cc1 (centres undefined),> 99 µM
13,O=C(NCCc1ccccc1)[C@H]1CN(C(=O)CCl)CCN1S(=O)(=O)c1ccsc1 (stereo in doubt),2.43 µM
14,O=C(Cn1nnc2ccccc21)N(Cc1ccccc1)c1ccc(N2CCOCC2)cc1,19.8 µM
15,O=C(Nc1cncn1-c1cccnc1)C1CCOc2ccc(Cl)cc21 (centres undefined),> 99.5 µM
16,O=C(Cc1cc(Cl)cc(Nc2ncnc3c2ncn3CCO)c1)Nc1cncc2ccccc12,1.82 µM
17,N#Cc1ncc(Cl)cn1,> 99.5 µM
18,COC1CC2(C1)CC(N(C(=O)c1cocn1)C(C(=O)NCCc1cccc(F)c1)c1cccnc1)C2 (centres undefined),> 99.5 µM
19,O=C(Cc1cc(Cl)cc(Nc2cncc(Br)c2)c1)Nc1cncc2ccccc12,2.16 µM
20,Cc1cccc(C)c1NC(=O)[C@@H]1CN(C(=O)CCl)CCN1S(=O)(=O)c1ccsc1 (stereo in doubt),1.64 µM
21,O=C(NCCc1cccc(F)c1)C(c1cccnc1)N(C(=O)c1cnc[nH]1)C1CCN(c2ccccc2F)C1 (centres undefined),> 99 µM
22,CC1(C(=O)Nc2cncc3ccccc23)CN(S(=O)(=O)CC2(C#N)CC2)Cc2ccc(Cl)cc21 (centres undefined),0.096 µM
23,Cc1cc(C(F)(F)F)nc2c1c(N)nn2C(=O)C1CCOc2ccc(Cl)cc21 (centres undefined),> 99.5 µM
24,CCOC(=O)c1c(C)n(S(C)(=O)=O)c2ccc(N(C(=O)c3ccco3)S(C)(=O)=O)cc12,0.282 µM

row,SMILES,IC50
1,Cc1ccncc1OCCNC(=O)C(C)(C)c1cccc(Cl)c1,> 99.5 µM
2,CC1(CS(=O)(=O)N2Cc3ccc(Cl)cc3C(C(=O)Nc3cncc4ccc(C(C)(C)O)cc34)C2)CS(=O)(=O)C1 (centres undefined),2.36 µM
3,O=C1OC(c2cccs2)=N/C1=C\c1ccc(N2CCOCC2)s1,0.696 µM
4,O=C(Nc1cncc2ccccc12)C1CN(S(=O)(=O)CC2(F)CC2)Cc2ccc(Cl)cc21 (centres undefined),0.176 µM
5,Cn1cc(C(=O)N(c2ccc(C(C)(C)C)cc2)C(C(=O)NCCc2cccc(F)c2)c2cccnc2)n(C)c1=O (centres undefined),> 99.5 µM
6,O=C(Cc1cc(Cl)cc(Nc2ccc(I)cc2)c1)Nc1cncc2ccccc12,1.84 µM
7,C=CC(=O)N(Cc1ccccc1Cl)C(C(=O)NC)c1cccnc1 (centres undefined),> 99.5 µM
8,O=C(NCCc1cccc(F)c1)C(c1cccnc1)N(C(=O)c1cocn1)C1COC2(CCCC2)C1 (centres undefined),> 99.5 µM
9,CN1C(=O)c2ccc(Nc3cc(Cl)cc(CC(=O)Nc4cncc5ccccc45)c3)cc2C1=O,1.66 µM
10,C=CC(=O)N(c1ccc(C(C)(C)C)cc1)C(C(=O)Nc1ccc(OC)cc1C)c1cccnc1 (centres undefined),> 99 µM
11,COC[C@@]1(C(=O)Nc2cncc3ccccc23)CCOc2cc(Cl)c(Cl)cc21 (stereo in doubt),13 µM and 21.9 µM
12,CC(=O)NCCc1c[nH]c2c(CN3CCN(C(=O)CCl)CC3)cccc12,17.4 µM
13,O=C(Cc1cccc(Cl)c1)Nc1cncc2[nH]ncc12,21.8 µM
14,Cc1cc2c(N3CCc4[nH]c5ccccc5c4C3)nccn2n1,> 99.5 µM
15,CC(C)(C)c1ccc(N(C(=O)c2ccco2)C(C(=O)NCCc2cccc(F)c2)c2cnc3ccccn23)cc1 (centres undefined),37.5 µM
16,CC(C(=O)OC1CCCN(Cc2cccc(C(F)(F)F)c2)C1=O)n1cnc(C#N)n1 (centres undefined),8.45 µM and 10.2 µM
17,O=C(NCCc1cccc(F)c1)C(c1cccnc1)N(C(=O)c1ccco1)C1CCN(c2ccccc2)CC1 (centres undefined),79.6 µM
18,Cc1ccc2ccccc2c1Nc1cc(Cl)cc(CC(=O)Nc2cncc3ccccc23)c1,2.52 µM
19,Cc1ccncc1NC(=O)Cc1cc(Cl)cc(-c2ccc(C3CC3(F)F)cc2)c1 (centres undefined),8.44 µM
20,O=C(Cc1cc(Cl)cc(NCCc2ccccc2C(F)(F)F)c1)Nc1cncc2ccccc12,2.97 µM
21,CC(NC(=O)Cc1ccc(-n2cnnn2)cc1)(C(=O)Nc1cncc2ccccc12)c1ccc(Cl)c(Cl)c1 (centres undefined),3.42 µM and 6.3 µM
22,COc1ccccc1OCC(C)NC(=O)c1cc(=O)[nH]c2cc(F)ccc12 (centres undefined),40.5 µM and 26.9 µM
23,CC(C)(C)c1ccc(N(C(=O)C2CCCN2)C(C(=O)NCCc2cccc(F)c2)c2cccnc2)cc1 (centres undefined),> 99.5 µM
24,CC(C)(C)NC(=O)CN1CC(C(=O)Nc2cncc3cc(F)ccc23)c2cc(Cl)ccc2C1=O (centres undefined),1.01 µM

row,SMILES,IC50
1,NS(=O)(=O)c1n[nH]cc1C(=O)NC[C@@]1(C(=O)Nc2cncc3ccccc23)CCOc2ccc(Cl)cc21 (stereo in doubt),1.99 µM
2,COc1ccc2cncc(NC(=O)[C@@H]3CCNc4cc(Cl)c(Cl)cc43)c2c1 (stereo in doubt),27.2 µM
3,Cc1cc(O)c(C(C(=O)NCCc2cccc(F)c2)N(C(=O)c2cocn2)c2ccc(C(C)(C)C)cc2)c(=O)[nH]1 (centres undefined),> 99.5 µM
4,Cn1ncc2cc(N(C(=O)c3cocn3)C(C(=O)NCCc3cccc(F)c3)c3cccnc3)ccc21 (centres undefined),48 µM
5,COc1ccc(C2CC(c3ccccc3)=NN2C(=O)CCl)cc1OC (centres undefined),0.543 µM
6,CN1CCN(c2ccc(F)cc2C(=O)N2CCC(C3CCNC3)CC2)CC1 (centres undefined),> 99.5 µM
7,CC1CC(CCN(C(=O)c2ccco2)C(C(=O)NCCc2cccc(F)c2)c2cccnc2)CC(C)(C)C1 (centres undefined),> 99.5 µM
8,CC(C)(C)c1ccc(N(C(=O)c2cc(O)cc(=O)o2)C(C(=O)NCCc2cccc(F)c2)c2cccnc2)cc1 (centres undefined),> 99.5 µM
9,O=C(NCCc1cccc(F)c1)C(c1cccnc1)N(C(=O)c1cocn1)c1ccc2ncsc2c1 (centres undefined),60.5 µM
10,CN(CC(=O)Nc1ccccc1Br)C(=O)CCl,5.9 µM
11,O=C(NCCc1cccc(F)c1)C(c1cccnc1)N(C(=O)c1cocn1)c1ccc2c(c1)CCC(=O)N2CC(F)F (centres undefined),24.5 µM
12,C=CC(=O)NCc1ccccc1S(=O)(=O)NC(C)(C)C,> 99.5 µM
13,O=C(Nc1cncc2ccccc12)C1CCOc2c(OCCC(F)(F)F)cc(Cl)cc21 (centres undefined),3.14 µM
14,O=C(Cc1cc(Cl)cc(Nc2ccc([N+](=O)[O-])c3ccccc23)c1)Nc1cncc2ccccc12,2.14 µM
15,CN(C)C(C(=O)Nc1cncc2ccccc12)c1ccc(Cl)c(Cl)c1 (centres undefined),4.27 µM
16,Cc1nnc(C2CCN(C(=O)c3ccc(Br)cc3)CC2)[nH]1,> 99.5 µM
17,O=C(NCCc1cccc(F)c1)C(c1cccnc1)N(C(=O)c1cocn1)C1CCc2ccccc21 (centres undefined),> 99.5 µM
18,CCOC(=O)c1cc(-c2ccccc2)sc1NC(=O)Cc1csc(-c2ccccc2)n1,4.66 µM
19,CC(=O)C(=O)N1CCN(Cc2cccc(Cl)c2)[C@@H](CC(C)C)C1 (stereo in doubt),> 99.5 µM
20,CC(C)(C)c1ccc(N(C(=O)c2ccco2)C(C(=O)NCCc2cccc(F)c2)c2coc3ccccc23)cc1 (centres undefined),> 99.5 µM
21,CCOC1CC2(C1)CC2N(C(=O)c1ccco1)C(C(=O)NCCc1cccc(F)c1)c1cccnc1 (centres undefined),> 99.5 µM
22,C=CC(=O)N(c1ccc(C(C)(C)C)cc1)C(C(=O)NC(C)(C)C)c1cccnc1 (centres undefined),> 99 µM
23,O=C(Cc1cc(Cl)cc(Nc2ccc(I)cn2)c1)Nc1cncc2ccccc12,2.21 µM
24,O=C1CCC(c2ccc(N(C(=O)c3cocn3)C(C(=O)NCCc3cccc(F)c3)c3cccnc3)cc2)N1 (centres undefined),> 99.5 µM

row,SMILES,IC50
1,O=C(Cc1cc(Cl)cc(N2CCN(c3ccccc3O)CC2)c1)Nc1cncc2ccccc12,1.85 µM
2,O=C(Nc1cncc2ccc(C(F)(F)F)cc12)C1CCOc2ccc(Cl)cc21 (centres undefined),> 99.5 µM
3,O=C(c1cccc(N2CCCNC2=O)c1)N1CCC(C2CCNC2)CC1 (centres undefined),> 99.5 µM
4,CC(C)N(C)S(=O)(=O)N1Cc2ccc(Cl)cc2C(C(=O)Nc2cncc3ccccc23)C1 (centres undefined),0.126 µM
5,O=c1[nH]c(Cc2cccc(S(F)(F)(F)(F)F)c2)nc2cnccc12,> 99.5 µM
6,COc1ncc(NC(=O)Cc2cccc(Cl)c2)c2ccccc12,> 99.5 µM
7,Cc1ccncc1NC(=O)Cc1cc(Cl)cc(NC2CC2C(F)(F)F)c1 (centres undefined),25.3 µM
8,O=C(Cc1cccc(Cl)c1)Nc1cccc2cn[nH]c12,> 99.5 µM
9,CC(C)(C)c1ccc(N(C(=O)c2ccnc(N3CCOCC3)n2)C(C(=O)NCCc2cccc(F)c2)c2cccnc2)cc1 (centres undefined),> 99.5 µM
10,Cc1cccc(NC(=O)[C@@H](c2ccccc2)N2Cc3ccccc3C2=O)n1 (stereo in doubt),> 99.5 µM
11,CCN(CC)CCOc1ccc2cncc(N3CCC4(CN(S(=O)(=O)CC5(C#N)CC5)Cc5ccc(Cl)cc54)C3=O)c2c1 (centres undefined),0.183 µM
12,CCOC(=O)Cn1cc(C(=O)N(c2ccc(C(C)(C)C)cc2)C(C(=O)NCCc2cccc(F)c2)c2cccnc2)nn1 (centres undefined),44 µM
13,Cc1cccc2c(NC(=O)Cc3cccc(Cl)c3)cncc12,> 99.5 µM
14,CNCC1CCCN(C(=O)[C@@H](c2ccccc2)N2Cc3ccccc3C2=O)C1 (stereo in doubt),> 99.5 µM
15,CS(=O)(=O)Nc1cccc(C2=NN(C(=O)CCl)C(c3ccccc3)C2)c1 (centres undefined),5.83 µM
16,CC(C)(C)c1ccc(N(C(=O)c2n[nH]c(=O)[nH]c2=O)C(C(=O)NCCc2cccc(F)c2)c2cccnc2)cc1 (centres undefined),> 99.5 µM
17,CN(C)c1ccc(C(Cc2ccsc2)C(=O)Nn2cnc3ccccc32)cc1 (centres undefined),> 99.5 µM
18,Cn1c(=O)c2cc(C(=O)N(c3ccc(C(C)(C)C)cc3)C(C(=O)NCCc3cccc(F)c3)c3cccnc3)n(C)c2n(C)c1=O (centres undefined),> 99.5 µM
19,O=C(Cc1cncc2ccccc12)N(CCC1CCCCC1)c1cccc(Cl)c1,2.11 µM
20,Cc1ccc(S(=O)(=O)NCC(=O)N2CCC(NS(N)(=O)=O)CC2)cc1,> 99.5 µM
21,O=C(NC1CCCCC1)[C@@H]1CN(C(=O)CCl)CCN1S(=O)(=O)c1ccsc1 (stereo in doubt),1.14 µM
22,CN(C)C(=O)CN1CCC(C(=O)Nc2cncc3ccccc23)c2cc(Cl)ccc21 (centres undefined),2.54 µM
